Patent US7968097B2, “Identification of Hla-A2-presented T-cell epitopes derived from the oncofoetal antigen-immature laminin receptor protein and uses thereof” (Immatics Biotechnologies GmbH, priority 2005, dated 2011)
Where “and” joins values, the source holds several entries; their conditions need not be identical. Equal entries are not always repeated. Entries after “also recorded” stand apart in the source; their conditions may differ.

Experiments:
HLA-A*0201 = target: T1, HLA-A*0201 (Homo sapiens, UniProt P04439, /I218V/L300P/L318F/N151K/N90K/P208A/P217A/Q86G/Q94H/R138H/R169H/T345S); test: T2 whole cell-binding assay (in vitro reconstitution assay, TAP-deficient T2 cell line); details: compared with the Flu nucleoprotein58-66
T1 construct: using the TAP (transporter associated with antigen processing)-deficient T2 cell line; host or cells: T2 (human, TAP-deficient)

[1] = system: hematological tumor cell lines (K562, IM9, Karpas-422, Balm-3, U266, REH, Ramos, MEC-1); test: 51Chromium release assay, peptide-specific CTL on tumor cell lines; type: cell-based, human; details: for cytolytic activity of peptide-specific CTL lines: HLA-A*0201+ hematological tumor lines, primary malignant AML blasts and CLL cells; for recognition of cell lines by peptide-specific T cells: K562, IND/IM9, Karpas-422, Balm-3, U266, REH, MEC-1, Ramos also for ILR2
Text: (§1) CTL derived from healthy HLA-A*0201^+ individuals were generated using a protocol described elsewhere (Zeis M, Siegel S, Schmitz M et al. Induction of cytotoxic T lymphocytes against hematologic neoplasms by survivin RNA-transfected dendritic cells. J Immunol. 2003; 170, 5391-5397.). For the induction of autologous OFA/ILR, peptide-specific CTL obtained from patients with AML and CLL, CD8^+ T cells were separated from PBMC using immunomagnetic beads (MACS®, Miltenyi, Bergisch-Gladbach, Germany), cultured with autologous OFA/iLR peptide-pulsed fully matured DC and restimulated with autologous peptide-pulsed PBMC in the presence of IL-2 (1 ng/ml, CellConcepts, Weisskirch, Germany). After at least four weekly restimulations, CTL reactivity was determined in a conventional 4 h ^51Chromium release assay. Cold target inhibition assays and antibody blocking experiments were performed as previously described (Zeis M, Siegel S, Schmitz M et al. Induction of cytotoxic T lymphocytes against hematologic neoplasms by survivin RNA-transfected dendritic cells. J Immunol. 2003; 170, 5391-5397.).
(§2) T cells recognizing the ILR1-peptide were tested on K562 [human pro-erythroblastic leukemia cell-line, also known as chronic myelogenous leukemia (CML) cell line, which, due to extremely low levels of HLA, functions as a control for excluding NK cells as effector cells], IND (human B lymphoblastoid cell line), Karpas-422 (human B cell lymphoma), Balm-3 (human non-Burkitt B-lymphoma cell line), U266 (human multiple myeloma), REH (Human B cell precursor leukemia), MEC-1 (human chronic B cell leukemia). The same T cells were used to test autologous and allogeneic PBMC from healthy donors as controls. […] The response is not directed against allogeneic major or minor histocompatibility complex antigens. • 3. ILR1 peptide is recognized in an HLA-restricted fashion. • 4. The restriction is allele-specific (specific for A*02). Target: AML
T cells recognizing the ILR2-peptide (FIG. 6) were tested on K562 [human proerythroblastic leukemia cell-line, also known as chronic myelogenous leukemia (CML) cell line, which, due to extremely low levels of HLA, functions as a control for excluding NK cells as effector cells], IM9 (human B lymphoblastoid cell line), Karpas-422 (human B cell lymphoma), Balm-3 (human non-Burkitt B-lymphoma cell line), U266 (human multiple myeloma), REH (Human B cell precursor leukemia), Ramos (synonym: RA 1; a human Burkittt's lymphoma B lymphoblast), MEC-1 (human chronic B cell leukemia). The same T cells were used to test autologous and allogeneic PBMC from healthy donors as controls.

[2] = system: peptide-pulsed 51Cr-labelled T2 cells; test: Cold target inhibition assay; type: cell-based, human
Text: as §1
A cold target inhibition assay was performed. To examine whether ILR1-specific T cells lyse ILR1 peptide-pulsed T2 cells specifically and in the context of HLA-A*02, cold target inhibition assays were performed as follows: ^51Cr-labelled T2 cells were loaded with peptide in a concentration of 10 microgram peptide/10^6 T2 cells/ml. A total of 2×10^5 unlabelled, T2 cells, which had equally been loaded with the same or a control peptide, were then added in a volume of 50 microliter AIMV to 10^4 peptide-pulsed, ^51Cr-labelled T2 cells. Effector T cells specific for ILR1 were added and a ^51Cr-release assay was performed as described above.
A cold target inhibition assay was performed as described under “T2+ILR1” above.

[3] = system: tumor cells from CLL patients; test: 51Chromium release assay, peptide-specific CTL on tumor cells from CLL patients; type: cell-based, human; details: for A*02-positive CLL patients in whom the peptide is a tumor-associated antigen: summary of two experiments; for recognition of CLL cells from A*02-negative patients by peptide-specific T cells / recognition of CLL cells from A*02-positive patients by peptide-specific T cells: two experiments
Text: as §1
T cells specific for HLA-A*02-restricted ILR1 were tested on tumor cells from CLL patients (5 patients; samples CLL-01, -02, -03, -05, -06). […] The experiment was repeated (FIG. 3A) with 8 more CLL patients, of whom 4/8 were A*02-positive. […] In summary: • 1. ILR1 is a tumor-associated antigen in 100% (7/7) of A*02-positive CLL patients tested. • 2. ILR1 is restricted by HLA-A*02. Target: T2
T cells specific for HLA-A*02-restricted ILR2 were tested on tumor cells from CLL patients (8 patients; samples CLL-01, -02, -03, -04, -05, -06, -07, -08). […] The experiment was repeated (FIG. 9B) with 5 more CLL patients, of whom 3/5 were A*02-positive. […] Conclusion-and-summary: • 1. ILR2 is a tumor associated antigen in 100% (7/7) of A*02-positive CLL patients tested. • 2. ILR2 is restricted by HLA-A*02. Target: T2

[4] = system: T cells of CLL patients (Binet A); test: IL-10-secreting peptide-specific T cells in CLL patients with early disease; type: cell-based, human; details: small series of CLL patients with early disease (Binet A); data not shown
Text: The inventors are currently involved with experiments to elucidate more precisely a possible relationship between the occurrence of anti-OFA/iLRP-specific T cells secreting IFN-γ or IL10 and the stage of disease in patients with CLL and multiple myeloma.

[5] = system: PBMC from healthy donors, CD34-positive progenitor cells, bone marrow cells; test: 51Chromium release assay, peptide-specific CTL on normal cells; type: cell-based, human; details: for recognition of bone marrow cells by peptide-specific T cells: A*02-positive donors (BM-01, -02); for recognition of CD34-positive bone-marrow-derived progenitor cells by peptide-specific T cells: A*02-positive donors (CD34-01, -02)
Text: as §1, §2

[6] = system: PBMC of HLA-A*02 positive myeloma patients; test: IFN-γ ELISPOT, myeloma patients; details: for # of positively stained spots (IFN-γ ELISPOT): Myeloma patients, HLA-A*02 positive, one value per patient (table line), T cells cultured seven days with IL-2; for samples with significant (>20) CTL responses against peptide: myeloma patient samples, IFN-γ ELISPOT
Description: (§3) To determine the frequency of OFA/iLR peptide-specific T cells in patients, ELISPOT-assays were performed using the Interferon-γ-ELISPOT-Kit (Becton Dickinson, Heidelberg, Germany) according to manufacturer's instructions.
(§4) Prior to analysis, T cells from patients and healthy donors had been kept in culture for seven days in the presence of Interleukin-2 (IL microgram/10^6 PBMC/milliliter).

[7] = system: PBMC of HLA-A*02 positive CLL patients; test: IFN-γ ELISPOT, CLL patients; details: for samples with significant (>20) CTL responses against peptide: CLL patient samples, IFN-γ ELISPOT; for # of positively stained spots (IFN-γ ELISPOT): CLL patients, HLA-A*02 positive, one value per patient (table line), T cells cultured seven days with IL-2
Description: as §3, §4

[8] = hot target ILR1-peptide-pulsed T2, effectors ILR1-specific CTL, 10 microgram peptide/10^6 T2 cells/ml
[9] = hot target ILR2-peptide-pulsed T2, effectors ILR2-specific CTL

| Sequence | binding affinity to HLA-A*0201 (HLA-A*0201) | cytolytic activity of peptide-specific CTL lines [1] | recognition of cell lines by peptide-specific T cells [1] | competition of cold targets loaded with the peptide for lysis [2, 8] | competition of cold targets loaded with the peptide for lysis [2, 9] | A*02-positive CLL patients in whom the peptide is a tumor-associated antigen [3] | recognition of CLL cells from A*02-negative patients by peptide-specific T cells [3] | recognition of CLL cells from A*02-positive patients by peptide-specific T cells [3] | IL-10-secreting T cells specific for the peptide [4] | lysis of HLA-A2-negative targets and normal hematopoietic cells by peptide-specific CTL lines [5] | recognition of allogeneic and autologous PBMC from healthy donors by peptide-specific T cells [5] | recognition of bone marrow cells by peptide-specific T cells [5] | recognition of CD34-positive bone-marrow-derived progenitor cells by peptide-specific T cells [5] | # of positively stained spots (IFN-γ ELISPOT) [6] | samples with significant (>20) CTL responses against peptide [6] | median numbers of positively stained CTL compared to responses to Influenza Matrix recall-antigen [7] | samples with significant (>20) CTL responses against peptide [7] | # of positively stained spots (IFN-γ ELISPOT) [7] |
| --- | --- | --- | --- | --- | --- | --- | --- | --- | --- | --- | --- | --- | --- | --- | --- | --- | --- | --- |
| ALCNTDSPL (listed as Homo sapiens) [ILR2] | strong binding affinity | strong cytolytic activity | All cell lines except Ramos and MEC-1, which do not express the HLA-A*02 allele, and K562, which is deficient for HLA class I gene expression in general, were recognized | neither peptides irrelevant for ILR1-specific CTL (Survivin and ILR2), nor unloaded T2 cells, which display empty HLA-A*02 molecules on their cell surfaces, compete for lysis | compete with the primary target cells | 100% | not recognized in any case (0/4) and 0/2 A*02-negative target cells were recognized | recognized in all cases (4/4); also recorded: CLL cells from 3/3 A*02-positive patients were recognized | no relevant IL-10-secreting T cells | spared | not recognized | not recognized | not recognized | 0 per 105 PBMC (4×) and 1 per 105 PBMC (2×) and 3 per 105 PBMC (2×) and 34 per 105 PBMC (3×) and 27 per 105 PBMC and 23 per 105 PBMC and 112 per 105 PBMC | 43% | 55% | 56% | 4 per 105 PBMC and 45 per 105 PBMC and 65 per 105 PBMC and 128 per 105 PBMC and 67 per 105 PBMC and 23 per 105 PBMC and 27 per 105 PBMC and 78 per 105 PBMC and 56 per 105 PBMC and 0 per 105 PBMC (5×) and 2 per 105 PBMC and 57 per 105 PBMC |
| LLAARAIVAI (listed as Homo sapiens) [ILR1] | strong binding affinity | strong cytolytic activity | All cell lines except MEC-1, which does not express the HLA-A*02 allele, and K562, which is deficient for HLA class I gene expression in general, were recognized | compete with the primary target cells | neither peptides irrelevant for ILR2-specific CTL (Survivin and ILR1), nor unloaded T2 cells, which display empty HLA-A*02 molecules on their cell surfaces, compete for lysis | 100% | recognized in any case (0/2) and 0/4 A*02-negative target cells were recognized | recognized-in-all cases (3/3); also recorded: CLL cells from 4/4 A*02-positive patients were recognized | no relevant IL-10-secreting T cells | spared | not recognized | not recognized | not recognized | 3 per 105 PBMC and 4 per 105 PBMC and 56 per 105 PBMC (2×) and 76 per 105 PBMC and 43 per 105 PBMC and 22 per 105 PBMC and 23 per 105 PBMC (2×) and 0 per 105 PBMC (2×) and 112 per 105 PBMC and 1 per 105 PBMC | 57% | 76% | 60% | 4 per 105 PBMC and 56 per 105 PBMC (2×) and 77 per 105 PBMC and 88 per 105 PBMC and 122 per 105 PBMC and 45 per 105 PBMC and 35 per 105 PBMC and 0 per 105 PBMC (4×) and 1 per 105 PBMC and 2 per 105 PBMC and 3 per 105 PBMC and 68 per 105 PBMC and 100 per 105 PBMC and 83 per 105 PBMC and 121 per 105 PBMC and 93 per 105 PBMC |
